In this test the target is T1, 5-HT1Dβ receptor (Homo sapiens, UniProt P28222).
T1 construct: expressed in transfected cells
The test is described as follows: biochemical. The test is classed as binding. Particulars: ^3 H-5-HT radioligand; membranes from recombinant cells; 15 minute incubation at 37° C.; test compound 10^-11 M to 10^-5 M.

T1 sequence (P28222 whole entry): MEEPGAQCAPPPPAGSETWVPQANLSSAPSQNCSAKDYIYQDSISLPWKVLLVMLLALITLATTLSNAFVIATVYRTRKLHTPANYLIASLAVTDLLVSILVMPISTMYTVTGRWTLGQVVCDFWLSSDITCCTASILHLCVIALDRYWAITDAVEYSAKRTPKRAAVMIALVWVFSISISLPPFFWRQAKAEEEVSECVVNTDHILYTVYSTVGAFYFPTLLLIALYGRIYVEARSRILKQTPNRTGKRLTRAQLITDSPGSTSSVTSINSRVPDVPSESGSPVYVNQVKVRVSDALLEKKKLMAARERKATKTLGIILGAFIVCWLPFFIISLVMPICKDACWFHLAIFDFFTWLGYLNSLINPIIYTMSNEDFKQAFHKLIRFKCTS
Method: The assay protocol generally entailed the incubation of membranes prepared from cells expressing the 1Dβ sub-type of 5-HT1D receptors, with ^3 H-5-HT. Increasing concentrations of the test compound were incubated with the radioligand and the membrane homogenates prepared from the recombinant cells. After a 15 minute incubation at 37° C., the incubation was terminated by vacuum filtration. The filters were washed with buffer and counted for radioactivity using liquid scintillation spectrometry. The affinity of the test compound for 5-HT1DIβ receptor was determined by computer-assisted analysis of the data and by determining the amount of the compound necessary to inhibit 50% of the binding of the radioligand to the receptor. Concentrations ranging from 10^-11 M to 10^-5 M of the test compounds were evaluated.

As to `COc1ccc(CCc2ccc3[nH]cc(CCN)c3c2)cc1` [4-MeO--Ph(CH2)2 --, 3-(2-aminoethyl)-5-(2-(4-methoxyphenyl)ethyl)indole], the Ki stood at 3.2 nM.
Then `NCCc1c[nH]c2ccc(CCc3ccccc3)cc12` [Ph(CH2)2 --, 3-(2-aminoethyl)-5-(2-phenylethyl)-indole], with 2.9 nM; and `NCCc1c[nH]c2ccc(OCCc3ccccc3)cc12` [Ph(CH2)2 O--, 3-(2-aminoethyl)-5-(2-phenylethyloxy)indole], with 1 nM.
On to `NCCc1c[nH]c2ccc(OCCCCc3ccccc3)cc12` [Ph(CH2)4 O--, 3-(2-aminoethyl)-5-(4-phenylbutyloxy)indole], for which the Ki was determined as 0.19 nM.
On to `NCCc1c[nH]c2ccc(OCCCCCc3ccccc3)cc12` [Ph(CH2)5 O--, 3-(2-aminoethyl)-5-(5-phenylpentyloxy)indole], for which the Ki stood at 0.64 nM.
Next, `NCCc1c[nH]c2ccc(OCCCCCCc3ccccc3)cc12` [Ph(CH2)6 O--, 3-(2-aminoethyl)-5-(6-phenylhexyloxy)indole]: 1.9 nM; `NCCc1c[nH]c2ccc(OCCCCCCCCc3ccccc3)cc12` [Ph(CH2)8 O--, reference compound]: 13.3 nM; `NCCc1c[nH]c2ccc(Cc3ccccc3)cc12` [PhCH2 --, 3-(2-aminoethyl)-5-benzylindole]: 3.7 nM.
Next, `NCCc1c[nH]c2ccc(OCc3ccccc3)cc12` [PhCH2 O--, 3-(2-aminoethyl)-5-benzyloxyindole, reference compound]: 10.5 nM.

(Values after patent publication US5504101A, “5-HT-1D receptor ligands” (priority 1994, dated 1996).)
